Measured values as given in article PMC4138991, “Building a Better Dynasore: The Dyngo Compounds Potently Inhibit Dynamin and Endocytosis” (Traffic (Copenhagen, Denmark), 2013).

Target: microtubule-stimulated dynamin I (Ovis aries, UniProt A0ACI6PDC7)
Test: Microtubule-stimulated (helical) dynamin I GTPase assay
Type: biochemical, sheep
Conditions: presence of Tween-80
Method: The Malachite Green colorimetric GTPase assay was as described 10. Dynamin I activity was measured in its SAI activity state or was stimulated by three different methods. As each stimulus activates dynamin to different extents, each assay required different dynamin concentrations. First, maximal dynamin activity was stimulated by sonicated PS liposomes 10. Purified dynamin I (10–20 nM, diluted in: 6 mM Tris–HCl, 20 mM NaCl and 0.01% Tween 80, pH 7.4) was incubated in 96‐well plates in GTPase buffer (5 mM Tris–HCl, 10 mM NaCl, 2 mM Mg^2+, 0.05% Tween 80, pH 7.4, 1 µg/mL leupeptin and 0.1 mM PMSF) and GTP 0.3 mM in the presence of test compound for 30 min at 37°C in a final assay volume of 150 μL. Reactions were terminated with 10 μL of 0.5 M ethylenediaminetetraacetic acid (EDTA) pH 7.4 and Malachite Green solution (40 μL: 2% w/v ammonium molybdate tetrahydrate, 0.15% w/v malachite green and 4 M HCl) was added for 5 min. Second, dynamin (20 nM) was stimulated by 10 µg/mL of taxol‐stabilized preformed bovine brain microtubules (Cytoskeleton, Inc) using the same protocol. […] Finally, dynamin (500 nM) SAI activity was measured using high concentrations of dynamin, which promote its cooperative self‐assembly into rings (but not helices) 26. […] After the Vmax and Km values were determined, the data were transformed using the Lineweaver–Burke equation, 1/v = 1/Vmax + (Km/Vmax)(1/[S]).

Chain of microtubule-stimulated dynamin I (A0ACI6PDC7 entry or part of it): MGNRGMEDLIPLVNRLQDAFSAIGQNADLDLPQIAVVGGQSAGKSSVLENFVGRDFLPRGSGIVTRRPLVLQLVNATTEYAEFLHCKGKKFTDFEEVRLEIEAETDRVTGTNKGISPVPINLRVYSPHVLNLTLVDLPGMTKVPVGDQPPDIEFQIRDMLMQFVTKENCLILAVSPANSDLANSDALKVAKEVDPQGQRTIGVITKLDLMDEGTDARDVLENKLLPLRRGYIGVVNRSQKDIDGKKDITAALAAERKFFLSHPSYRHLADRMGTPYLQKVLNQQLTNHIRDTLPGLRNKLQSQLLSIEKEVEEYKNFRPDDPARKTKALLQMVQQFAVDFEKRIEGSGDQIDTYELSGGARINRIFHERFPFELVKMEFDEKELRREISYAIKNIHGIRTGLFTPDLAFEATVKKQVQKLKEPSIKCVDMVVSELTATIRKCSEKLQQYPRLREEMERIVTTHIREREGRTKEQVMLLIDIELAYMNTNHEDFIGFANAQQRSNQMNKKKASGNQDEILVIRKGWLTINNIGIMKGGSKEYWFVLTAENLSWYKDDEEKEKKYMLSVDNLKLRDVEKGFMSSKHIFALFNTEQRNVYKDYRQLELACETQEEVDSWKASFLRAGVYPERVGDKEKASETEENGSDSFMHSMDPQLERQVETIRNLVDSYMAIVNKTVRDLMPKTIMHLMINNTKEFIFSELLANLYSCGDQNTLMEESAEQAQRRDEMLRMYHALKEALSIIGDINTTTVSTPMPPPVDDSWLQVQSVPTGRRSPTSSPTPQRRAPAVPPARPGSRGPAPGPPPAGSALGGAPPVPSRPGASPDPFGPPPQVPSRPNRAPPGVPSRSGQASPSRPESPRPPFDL

In the case of `O=C(N/N=C/c1ccc(O)c(O)c1)c1cc2ccccc2cc1O` [Dynasore, (E)-N'-(3,4-Dihydroxybenzylidene)-3-hydroxy-2-naphthohydrazide], the “block of microtubule-stimulated dynamin activity” value is reported as “did not block”.
